Test system: M. tuberculosis H37Rv growth inhibition
Test: M. tuberculosis H37Rv growth inhibitors, H37Rv strain (AID 1626)
Settings: for IC90: measured here: IC90 against H37Rv; for CC50: measured here: Vero cell cytotoxicity

Row | SMILES | IC50 [µM] | IC90 [µM] | CC50 [µM]
1 | CCCCCc1cc(=O)oc2c(C(CCN3CCCCC3)c3ccc(OC)cc3)c(OC)cc(OC)c12 (stereo unspecified) | 2.86 | 3.91 | 14.9
2 | Nc1ccc(Oc2ccc(Br)cc2)cc1 | 30.8 | > 100 | 
3 | CCOc1ccc2nc(NC(=O)c3ccccn3)sc2c1 | 1.36 | 3.07 | 15.1
4 | COC(=O)c1cc(=O)n(-c2ccccc2)c(=Nc2ccccc2)s1 | 5.19 | 17.7 | 27.6
5 | COc1cc(/C=C/C(=O)c2c(O)n(CCc3ccccc3)c(=O)[nH]c2=O)ccc1O | 7.57 | 11.3 | 20.2
6 | CCCSC1=C(C#N)C(c2cccs2)C(C(=O)Nc2ccccc2)=C(C)N1 (stereo unspecified) | 7.77 | 68.2 | > 40
7 | COc1cc(CNc2ccc(N3CCN(C(C)=O)CC3)cc2)ccc1OCc1ccc(F)cc1 |  |  | > 40
8 | c1ccc(CC2CCN(c3nc4ccccc4n4cnnc34)CC2)cc1 | 1.77 | 3.44 | > 40
9 | COC(=O)CCSc1cc(NCCOC(C)=O)c([N+](=O)[O-])c2nonc12 | 16.1 | 40.3 | 
10 | CCC(=O)OCCNc1cc(Sc2nccn2C)c2nonc2c1[N+](=O)[O-] | 20.2 | 27.4 | 18.3
11 | CC(=O)/C=C(\C)Nc1ccccc1O | 0.992 | 2.44 | > 40
12 | Fc1cccc2sc(Nc3nnc(-c4ccco4)o3)nc12 | < 0.195 | 3.19 | 36.4
13 | O=S(=O)(Nc1ccn(-c2ccccc2)n1)c1ccc(Br)cc1 | 30.1 | > 100 | 
14 | COc1ccc(CCNc2cc(C)nc3c(-c4ccccc4)c(C)nn23)cc1OC | 3.56 | 8.82 | 
15 | COc1ccc(C(CCNCc2ccc(F)cc2)c2ccc(F)cc2)cc1 (stereo unspecified) | 5.7 | 6.62 | 23.2
16 | O=c1nc2c(O)cccn2c2c1c(=O)[nH]c1ccccc12 | 6.69 | 12.4 | 
17 | CCCOC(=O)c1ccc(NC(=O)C2C3C=CC(O3)C2C(=O)O)cc1 (stereo unspecified) | 35.2 | > 100 | 
18 | C=C1C(=O)O[C@@H]2C[C@@H](C)[C@@H]3C=CC(=O)[C@@]3(C)[C@@H](O)[C@H]12 | 3.84 | 6.64 | 1.84
19 | CCOc1ccc2nc(NC(=O)C(CC)Sc3nc(C)cc(=O)[nH]3)sc2c1 (stereo unspecified) | 35.7 | > 100 | > 40
20 | Cc1ccc2nc(-c3cccc(N)c3)oc2c1 | 12.7 | > 100 | > 40
21 | CCCc1nnc(NC(=O)c2c(O)c3cccc4c3n(c2=O)CCC4)s1 | < 0.391 | < 0.391 | 25.6
22 | Cn1c(N=Nc2ccccc2)nc2ccccc21 | 1.04 | 1.89 | 16.1
23 | Cn1c(NC(=O)c2ccccc2NC(=O)C(C)(C)C)nc2ccccc21 |  |  | > 40
24 | CCc1ccccc1NC(=O)c1cccc(NC(=O)/C=C/c2ccco2)c1 |  |  | > 40
25 | CCCCNC(=O)c1cc2n(n1)C(C(F)(F)F)CC(c1ccccc1)N2 (stereo unspecified) | 0.363 | 4.14 | 
26 | CCc1ccc(Nc2nnc(SCC(=O)Nc3cccnc3Cl)s2)cc1 | 5.02 | 13.6 | 
27 | COc1cc(-c2nnc(SCC(=O)OC3CCCCC3)o2)cc(OC)c1OC | < 0.195 | 1.78 | 

Row | SMILES | IC50 [µM] | IC90 [µM] | CC50 [µM]
28 | O=C1/C(=C/c2cccnc2)Oc2cc(OS(=O)(=O)c3ccc(F)cc3)ccc21 | 72.6 | > 100 | 
29 | O=C(O)C1CCCCC1C(=O)Nc1ccccc1Nc1ccccc1 (stereo unspecified) |  | > 100 | 
30 | Cc1cc2oc3c(c(=O)c2cc1C)C(c1cccc(Br)c1)N(Cc1ccco1)C3=O (stereo unspecified) | 5.92 | > 100 | 13.9
31 | CCCNC(=O)c1nnsc1S(=O)(=O)c1ccc(Cl)cc1 | 25.2 | 28 | 16.2
32 | Cc1occc1-c1nnc(SCC(=O)NCCc2ccccc2)o1 | 15 | > 100 | 
33 | Cn1c(NCc2ccccc2)nc2c1c(=O)n(Cc1ccc(Br)cc1)c(=O)n2C | 13.8 | > 100 | > 40
34 | COc1ccc(CNc2ncnc3cc(Cl)ccc23)cc1 | 58.5 | > 100 | 
35 | c1cc2c(cc1C1CCCCC1)c1c3n2CCCNC3CCC1 (stereo unspecified) | 6.06 | 6.63 | 6.99
36 | COc1cccc2sc(N(CCCN(C)C)C(=O)C(c3ccccc3)c3ccccc3)nc12 | 13.5 | 18.4 | 21.8
37 | O=C(Nc1nccs1)c1ccccn1 | 6.09 | 15.7 | > 40
38 | CN(C)CCNC=C(C(=O)Nc1ccc(Cl)cc1Cl)C(=O)Nc1ccc(Cl)cc1Cl | 2.45 | 3.44 | 18.1
39 | CCOc1cc(CNC(C)(C)CO)cc(Br)c1OCc1ccc(Cl)cc1Cl | 11.4 | 12.3 | 12.7
40 | CO[C@H]1C=CO[C@@]2(C)Oc3c(C)c(O)c4c(O)c(c5c(c4c3C2=O)NC2(CCN(CC(C)C)CC2)N=5)=NC(=O)C(C)=CC=C[C@H](C)[C@H](O)[C@@H](C)[C@@H](O)[C@@H](C)[C@H](OC(C)=O)[C@@H]1C | < 0.195 | < 0.195 | > 40
41 | CCCCOc1ccc(NC(=O)CSc2nnnn2C)cc1 | 34 | > 100 | 
42 | CCCN(CCC)CC(O)Cn1cc(/C=C/C(=O)c2ccccc2)c2ccccc21 (stereo unspecified) | 1.5 | 1.66 | 20.3
43 | CCC(=O)OCCNc1cc(SCCC(=O)OC)c2nonc2c1[N+](=O)[O-] | 12.2 | 19.5 | 
44 | O=C(Cc1cccs1)Nc1cccc(-c2nc3cc4ccccc4cc3[nH]2)c1 | 15.5 | 24.3 | 21
45 | Cc1nc([N+](=O)[O-])c(Br)n1CC(=O)c1ccc(Cl)cc1 | 16.8 | 23.2 | 30.6
46 | COc1ccc(NC(=O)c2ccc(-c3ccc([N+](=O)[O-])cc3)o2)cc1 |  | > 100 | 
47 | CC(C)c1ccc(NC(=O)NC2CCCCC2)cc1 | 6.27 | > 100 | 
48 | CC(C)(C)c1ccc(-c2cn(-c3ccc(Br)cc3)c3[n+]2CCCS3)cc1 | 2.62 | 4.97 | 13.3
49 | CCOC(=O)c1ccc(NS(=O)C23CC4CC(CC(C4)C2)C3)cc1 (stereo unspecified) | 7.62 | > 100 | 
50 | C(=C\c1nc(N2CCCC2)c2ccccc2n1)/c1ccccc1 | 5.33 | 7.91 | > 40
51 | Cc1ccc(NCc2nnc(SCC(=O)OC3CCCCC3)o2)c(C)c1 | 0.332 | 1.59 | 
52 | Cc1ccccc1N1CCN(C2=NC(=O)/C(=C\c3cccs3)S2)CC1 | 14.2 | 21 | > 40
53 | CCCCCCn1c(=O)c(C(=O)Nc2nc(CC(=O)OCC)cs2)c(O)c2ccccc21 | < 0.195 | < 0.195 | 4.53
54 | COc1ccc2cc(C(c3nnnn3C3CCCC3)N3CCCCCC3)c3nnnn3c2c1 (stereo unspecified) |  |  | 15.1

Row | SMILES | IC50 [µM] | IC90 [µM] | CC50 [µM]
55 | COc1ccc(N)c2c1C(=O)c1ccccc1C2=O | 17.5 | > 100 | > 40
56 | Cc1cnc(C(=O)Nc2nnc(SCc3c(Cl)cccc3Cl)s2)cn1 | 8.19 | > 100 | 35.5
57 | CCOC(=O)N1CCN(CCC(=O)Nc2ccc(C)c(Br)c2)CC1 | 6.69 | 26.2 | 
58 | CCC(=O)Nc1ccc2ccccc2c1 | 46.5 | > 100 | 
59 | Cc1cc(C)n(-c2nc(N(c3ccccc3)c3ccccc3)nc(-n3nc(C)cc3C)n2)n1 | 2.76 | 10.4 | > 40
60 | Cc1sc2nc[nH]c(=S)c2c1-c1ccccc1 | 32.3 | > 100 | > 40
61 | CC1CCCCN1C(=O)COC(=O)/C=C/c1ccc2ccccc2n1 (stereo unspecified) | 0.807 | 5.9 | > 40
62 | Cc1nc(C)c(/C(O)=C/c2nc3ccccc3oc2=O)s1 | < 0.195 | > 100 | 
63 | O=C1C=C(Nc2ccccc2O)c2ccccc2C1=O | 23.3 | 26.6 | 13.3
64 | CCCCCCCn1c(=O)c(C(=O)Nc2cnccn2)c(O)c2ccccc21 | < 0.195 | < 0.195 | 2.37
65 | COc1ccc(C(C(=O)NC2CCCCC2)N(C(=O)c2sc(C)nc2C)c2ccc(C(C)=O)cc2)cc1 (stereo unspecified) | 65.5 | > 100 | 
66 | CCOC(=O)C1=C(CC)Nc2ccccc2N=C1NC(=O)Nc1ccc(Cl)c(Cl)c1 | 2.73 | 3.1 | 10.3
67 | CCOc1ccc2nc(NC(=O)CSc3nc(SC)ns3)sc2c1 | 2.95 | > 100 | > 40
68 | COc1ccc(NC(=O)CCc2nc(-c3ccc(C)cc3)no2)cc1Cl | 3.59 | > 100 | > 40
69 | CC(=O)c1ccc(NC(=O)COC(=O)c2c3c(nc4ccccc24)/C(=C\c2cccs2)CCC3)cc1 | 0.449 | > 100 | 13.6
70 | Cc1sc(NC(=O)c2ccco2)c(C(c2ccccc2)N2CCC(C)CC2)c1C (stereo unspecified) |  |  | > 40
71 | Cc1ccc(NC(=O)c2nc[nH]c2C(=O)N[C@@H](C)c2ccccc2)cc1 | 2.16 | 6.42 | > 40
72 | COc1cc(CNCc2ccccn2)ccc1OCc1ccc(Cl)c(Cl)c1 | 5.63 | 7.7 | > 40
73 | CCCCn1c(O)c(C(C)=Nc2ccc(OCC)cc2)c(=O)[nH]c1=O | 5.45 | > 100 | > 40
74 | Cc1ccc(-c2c[n+](CC(=O)Nc3nc(-c4ccc(F)cc4)cs3)c3n2CCC3)cc1 | 4.87 | 7.09 | 
75 | CCN(CC)c1ccc(CNc2nc3ccccc3n2CCN2CCCCC2)cc1 | 36.7 | 43.8 | > 40
76 | Cc1ccc(C)c(-c2cc(C(=O)Nc3nccs3)c3ccccc3n2)c1 | 8.18 | 11.3 | 
77 | CC(C)COCC(CN(Cc1ccccc1)c1ccccc1)N1CCCC1 (stereo unspecified) | 14.8 | 20.1 | > 40
78 | COc1ccc(C(=O)CCNc2ccc(C)c(Cl)c2)cc1 | 58.9 | > 100 | 
79 | CCC(C)Nc1nc2c(C)cccn2c(=O)c1C=Nc1ccc(OC)cc1 (stereo unspecified) | 52.4 | > 100 | 
80 | O=C(Nc1nc(-c2ccccn2)cs1)c1ccc(Br)s1 | < 0.195 | 0.585 | 2.73

— PubChem BioAssay AID1626 (SRMLSC, 2009)
